The values that follow come from patent US6444862B1, “Synthesis and isolation of metal alkoxides” (Mine Safety Appliances Company, priority 2000, dated 2002).

This data set in a line: Solubility of metal alkoxide in solvent. Format: physicochemical. Conditions: solution in heptane. The text has this:
To provide a safer material, metal alkoxides are often dissolved in a solvent. In general, liquids are, for example, easier to transfer from drums or cylinders into reactors (reducing the exposure of human handlers to dangerous materials), more easily kept under an inert atmosphere, and provide more options for modes of addition to the substrate. […] The low solubilities of many alkoxides have been attributed to the ionic character and the extent of oligomerization or polymerization in solution. Another factor affecting solubility in an alcohol solvent is the propensity of alkoxides to form insoluble alcoholate complexes with the alcohol. Metal alkoxides are somewhat more soluble in polar ethereal solvents such as tetrahydrofuran and the polyethers (glymes). However, even in ethers, the solubility is generally less than 50%, especially at or below room temperature (that is, at or below 25° C.). Moreover, the range of polar solvents is somewhat limited as a result of the reactivity of the alkoxide. Furthermore, in some cases the solvent of choice for the desired reaction involving a metal alkoxide is not compatible with the alkoxide or the metal alkoxide is insoluble therein.
In one set of studies, potassium 3,7-dimethyl-3-octanoxide (KDMO), was prepared by the reaction of potassium metal with 3,7-dimethyl-3-octanol in heptane in a pressure reaction vessel. […]

As for `CCC(C)([O-])CCCC(C)C.[K+]` (stereo not shown) [Example 1, Potassium 3,7-Dimethyl-3-octanoxide], the “concentration of alkoxide solution prepared” value was 70-75 wt %.
